Columns and labels:
hippocampal neurons = experiment: OGD (Oxygen and Glucose Deprivation) neuronal cell death in hippocampal neurons; assay type: cell-based; conditions: in vitro
Description: NGF overexpression decreases infarct volume and neuronal apoptosis in transgenic mice or intraventricular injected mice (Guegan et al., 1998; Luk et al., 2004). NGF also potently protects PC12 cells from apoptosis in an OGD (Oxygen-glucose-deprivation) model (Tabakman et al., 2005). To explore whether test compounds might exert any protective effect on hippocampal neurons in OGD, the primary preparations can be pre-treated with NGF or test compounds 30 min before OGD stimulation. […] Titration assays can show whether the compounds protect neurons in a dose-dependent manner. Therefore, the assay can identify compounds which selectively protect TrkA expression cells and primary neurons from apoptosis.
NGF overexpression decreases infarct volume and neuronal apoptosis in transgenic mice or intraventricular injected mice (Guegan et al., 1998; Luk et al., 2004). NGF also potently protects PC12 cells from apoptosis in an OGD (Oxygen-glucose-deprivation) model (Tabakman et al., 2005). To explore whether gambogic amines exert any protective effect on hippocampal neurons in OGD, one can pre-treat the primary preparations with NGF or various compounds 30 min before OGD stimulation. […] Titration assays can reveal whether or not the compounds protect neurons in a dose-dependent manner. […]

infarct volume = experiment: Transient middle cerebral artery occlusion (MCAO) stroke model, infarct volume; parameters: species or system rats; conditions: rat, in vivo
Description: To further determine the neuroprotective potential in vivo, test compounds can be tested in a transient middle cerebral artery occlusion (MCAO) stroke model in adult male rats. After 2 h MCAO followed by reperfusion, the animals receive vehicle or test compounds (2 mg/kg) 5 min prior to the onset of reperfusion.
A representative brain slice stained with TTC 24 h after MCAO in vehicle-treated and compound-treated rats can be subjected to area and volume measurements from TTC sections to indicate whether treatments with the compound substantially reduces infarct volumes in this transient ischemic model of stroke. […]
To further determine the neuroprotective potential in vivo, the gambogic amine can be tested in a transient middle cerebral artery occlusion (MCAO) stroke model in adult male rats. […] LDF (laser-Doppler flowmetry) can be measured over the ipsilateral parietal cortex. The effects of the gambogic amine on relative CBF (cerebral blood flow) can be evaluated. After filament withdrawal (120 min), relative CBF can also be measured in the vehicle-treated group and gambogic amine-treated groups, and compared with preischemic levels.
Rats can be used in a study of focal ischemia. […] Using a SurgiVet (model V3304; Waukesha, Wis., USA) pulse oximeter, blood SpO2 can be monitored and maintained at levels 90%. […]

hippocampus = experiment: Kainic acid-elicited neuronal cell death in mouse brain (TUNEL, hippocampus); assay type: in vivo, C57BL/6 mice; conditions: mouse brain
Description: Kainic acid (KA) is a potent agonist for the AMPA receptor. Peripheral injections of KA result in recurrent seizures and the subsequent degeneration of select populations of neurons in the hippocampus (Nadler et al., 1980; Schauwecker and Steward, 1997; Sperk et al., 1983). It has been shown that the activation of caspase-3 is a necessary component of KA-induced cell death (Faherty et al., 1999). To explore whether test compounds can block the neurotoxicity initiated by KA, the compounds can be subcutaneously injected (for example, at a concentration of 2 mg/kg) into C57BL/6 mice, followed by 25 mg/kg KA. In 5 days, the mice can be perfused and the brains cut to a thickness of 5 μm and mounted on slides.
Kainic acid (KA) is a potent agonist for the AMPA receptor. Peripheral injections of KA result in recurrent seizures and the subsequent degeneration of select populations of neurons in the hippocampus (Nadler et al., 1980; Schauwecker and Steward, 1997; Sperk et al., 1983). It has been shown that the activation of caspase-3 is a necessary component of KA-induced cell death (Faherty et al., 1999). To explore whether gambogic amines can block the neurotoxicity initiated by KA, one can subcutaneously inject 2 mg/kg of a gambogic amine into C57BL/6 mice, followed by 25 mg/kg KA. In 5 days, the mice can be perfused and the brains were cut to a thickness of 5 μm and mounted on slides. TUNEL staining can reveal whether KA provokes enormous apoptosis in the hippocampus, and whether this effect is substantially diminished by the gambogic amine.
Male C57BL/6 mice aged of 60 days can be injected subcutaneously (s.c.) with a single dose of either 30% ethanol in saline or KA (25 mg/kg) (Sigma, Mo.) or the gambogic amine (2 mg/kg) followed by KA. Animals can be continually monitored for 2 h for the onset of seizure activity. At 5 days following treatment, animals can be anesthetized and perfused with 4% paraformaldehyde in 0.1 M phosphate buffered saline. Brains can be removed, post-fixed overnight and processed for paraffin embedding. […]

For CC(C)=CCC[C@]1(C)C=Cc2c(O)c3c(c(CC=C(C)C)c2O1)O[C@]12C(=C[C@@H]4CC1C(C)(C)O[C@@]2(C/C=C(/C)C(N)=O)C4=O)C3=O [gambogic amide], the “protection of hippocampal neurons from OGD neuronal cell death” value (hippocampal neurons) was “potent neurotrophic effects”, the “decrease of stroke-induced infarct volume” value (infarct volume) was “effectively decrease” and the “block of kainic acid-elicited neuronal cell death in mouse brain” value (hippocampus) was “strongly block”.
